Measured values published in patent US20240181049A1, “HARNESSING THE POWER OF MICROBIOTA AND METABOLITES FOR THE TREATMENT OF CANCER” (UTI LIMITED PARTNERSHIP, priority 2019, published 2024).

What was measured:
[1] = system: naïve OVA323-339-specific OT-II CD4^+ T cells; experiment: BMDC / naive OT-II CD4+ T cell co-culture, Th1 differentiation; format: cell-based, mice; conditions: 2 mM inosine, 48 hours
Source text: FIG. 4A-4K: Effect of inosine on T cell differentiation and dependency on classical dendritic cells of ICB therapy efficacy. (a) Scatter plot of untargeted metabolomics data in the serum of anti-CTLA-4 treated, tumor-bearing B.p. monocolonized compared to C.sp. monocolonized and germ-free (GF) mice. Grey circles or dotted grey circles depict inosine or inosine fragments/adducts, respectively. […] (c) Naïve CD4^+ T cells were co-cultured with bone marrow derived dendritic cells and IFN-γ. Quantification of T-bet^+CD3ε^+CD4^+ T cells 48 hours after co-culture in the presence or absence of inosine, A2A receptor inhibitor (ZM241385), cell permeable cAMP (db-cAMP) and protein kinase A inhibitor (RP-8-CPT-CAMPS). (d) Same as (c) without IFN-γ. (e) Representative plot and quantification (left and right panel) of phospho-CREB (Ser133) levels in naïve CD4^+ T cells cultured with anti-CD3/anti-CD28 coated beads for 1 hour in the presence or absence of inosine. (f) Schematic overview of experimental setup to deplete classical dendritic cells during MC38 tumor challenge and anti-CTLA-4 treatment. Intratumoral (g) frequency of CD8^+ T cells (h) IFN-γ^+CD8^+ T cells. (i and j) same as (g and h), but CD4^+ T cells and (k) tumor weight at […]. Data are mean±SEM and pooled from two individual experiments (a-b) n=5-8 samples/group (c-e) 10-15 biological replicates/group (f-k) 10 mice/group. *, P<0.05; **, P<0.01; ***, P<0.001; ****, P<0.0001
Bone marrow derived dendritic cells (BMDCs) were generated from flushed bone marrow cells, maintained in RPMI-1640 (Sigma) supplemented with 10% FBS, 50 μm 2-Mercaptoethanol (Sigma) 100 units/ml penicillin, 100 μg/ml streptomycin sulfate and 20 ng/ml rm GM-CSF (R&D). Medium was exchanged after 48 hours and 72 hours. 5 days after culture, a magnetic cell sorting step was performed to enrich for CD11c^+ cells (Miltenyi Biotec). CD11c^+ cells were seeded in 96 flat bottom wells and pulsed with 20 ng/ml OVA323-339 and 100 ng/ml LPS (both Sigma) for 18 hours. In some conditions BMDCs were also cultured with 10 ng/ml rmIFN-γ (R&D).
Negative selection magnetic cell sorting (Miltenyi Biotec) was used to enrich naïve OT-II CD4^+ T cells. Naïve OT-II CD4^+ T cells were then co-cultured with BMDCs at a ratio of 2:1 or stimulated with anti-CD3/anti-CD28 T cell activation beads (Thermofisher) at a ratio of 1:1 for 48 hours prior to restimulation with PMA/lonomycin in the presence of Brefeldin-A and analysis (see Single cell preparation and flow cytometry for details). In some conditions cells were additionally cultured with various combinations of 2 μg/ml anti-CTLA-4, 100 μM db-cAMP (Sigma), 5 μM ZM 241385 (Sigma), 300 μM Rp-8-CPT-CAMPS (Cayman Chemical) or 2 mM inosine (Sigma) as described previously (He et al., 2017; Yao et al., 2013).

MC38 = MC38 tumors in SPF mice, inosine or B. pseudolongum + anti-CTLA-4; format: in vivo; conditions: oral gavage
Method: FIG. 35A-35H. Inosine and live B. pseudolongum improve anti-CTLA-4 therapy efficacy in moderately diverse and complex microbiomes. A) Schematic overview of experimental setup to assess the effect of inosine on anti-tumor immunity in gnotobiotic mice (Oligo-MM12) stably colonized with 12 bacterial species. Upon palpable tumors, Oligo-MM12 colonized mice were treated with 100 μg anti-CTLA-4 i.p. or Isotype antibody (5 times every 72 hours). In addition, inosine (300 mg/KG/BW) or PBS was given daily orally through gavage. (B) Pictures of tumors and (C) tumor weight are shown at day 20. scale bars: 1 cm. (D) Quantification of intratumoral IFN-γ+ cells amongst CD8+ or CD4+ T cells are shown. (E) Schematic overview of experimental setup to assess the effect of inosine and B. pseudolongum on anti-tumor immunity in SPF mice. Following MC38 injection some mice received antibiotics (ABX), specifically Ampicillin 1 mg/ml, Colistin 1 mg/ml and Streptomycin 5 mg/ml for 7 days in the drinking water. Upon palpable tumors, antibiotics were removed and 100 μg anti-CTLA-4 (5 times every 72 hours) started. Mice concomitantly received either PBS, inosine (300 mg/KG/BW daily), B. pseudolongum or heat inactivated (H.i.) B. pseudolongum orally through gavage (5 times every 72 hours). […] (H) Quantification of intratumoral IFN-γ+ cells amongst CD8+ or CD4+ cells are shown. […]

## OC[C@H]1O[C@@H](n2cnc3c(O)ncnc32)[C@H](O)[C@@H]1O [inosine]
[1]; in the absence of IFN-γ
  Th1 induction: reduced Th1 induction
[1]; in the presence of exogenous IFN-γ
  Th1 differentiation of naïve T cells (T-bet+): strongly boosted Th1 differentiation of naïve T cells
MC38
  efficacy of anti-CTLA-4: could promote the efficacy of anti-CTLA-4
